What all share (experiment): DTP human tumour cell line panel, 48 h
For test [1], the system named is NCI-H522 lung.
Test [2] concerns 786-0 renal.
Test [3] has as its system MDA-MB-435.
Test [4] has as its system PC-3 prostate.
Test [5] concerns OVCAR-3 ovarian.
The test system of test [6] is MDA-MB-231 breast.
The subject of test [7] is HL-60(TB) leukemia.
The subject of test [8] is MALME-3M melanoma.
Test [9] has as its system TK-10 renal.
Test [10] relates to SF-295 CNS.

Several values for one entry are separate records, joined by “and”; a condition that tells them apart may be missing. Equal entries are not always repeated.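 Dose response: 5 concentrations. Exposure: 48 h. Format: 96-well plates. Endpoint: linear interpolation; highest concentration if not reached. Here, GI50 denotes the concentration required for 50% inhibition of growth. The concentration for full growth arrest is given as TGI.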

As to `CS(=O)(=O)CCNCc1ccc(-c2ccc3ncnc(Nc4ccc(OCc5ccccc5)c(Br)c4)c3c2)o1`, the GI50 (commonly the concentration that inhibits growth by half) in test [1] is 3.86 µM; in [2], 4.69 µM; in test [3], 6.09 µM; in test [4], 9.28 µM; in test [5], 9.22 µM; in [6], 4.85 µM. Besides, the GI50 was 6.81 µM in [7], 5.37 µM in test [8], 2.02 µM in test [9] and 5.26 µM in test [10]. Further, the TGI (in general, the concentration giving total growth inhibition) was 10.6 µM in test [1]; 10.2 µM in test [2]; 15.8 µM in [3]; over 25 µM in test [4]; over 25 µM in test [5]; 9.87 µM in [6]. For the same compound, the TGI in test [7] is 15.9 µM; in test [8] it was 10.4 µM; in test [9] it was over 22 µM; in test [10] it was 12.8 µM.

Take `CNC/C(Cl)=N/S(=O)(=O)c1ccc(C)cc1`: the TGI in test [1] was found to be 24.9 µM; in test [2], 25.2 µM; in [3] it was 21.5 µM; in test [4], 22.8 µM; in test [5], 25.5 µM; in test [6], 28.5 µM. Further, the TGI in test [8] is 27.5 µM; in test [9] it was 28.6 µM; in [10], 32.4 µM.

As to `Cc1cc(=O)oc2c(C)c(O)ccc12`, the TGI in test [1], in test [2], in test [3], in test [4], in [5] and in [6] was over 100 µM throughout. Further, the concentration for total growth inhibition (TGI) in test [7], in test [8] and in test [10] was over 100 µM each time.

In the case of `COc1cccc(/C=C/[N+](=O)[O-])c1`, the GI50 in test [1] was 11.1 µM; in [2], 1.9 µM; in test [3], 2.69 µM; in test [4] it was 4.58 µM; in [5], 1.96 µM; in test [6], 6.41 µM. For the same compound, the GI50 was 2.31 µM in test [7], 12.1 µM in test [8] and 3.07 µM in test [10]. Further, the TGI in test [1] came out at 23.5 µM; in test [2] it was 4.06 µM; in [3], 9.28 µM; in [4], 17 µM; in test [5], 4.08 µM; in [6] it was 20.8 µM. Moreover, the TGI in test [7] is 5.77 µM; in test [8], 27.8 µM; in [10], 13.4 µM.

As to `Cc1ccc(Cc2cnc(NC(=O)/C=C/c3cccc(C)c3)s2)cc1`, the GI50 was 0.151 µM in test [1]; 0.389 µM in [2]; 0.0275 µM in test [3]; 0.154 µM in test [4]; 0.0634 µM in test [5]; 0.397 µM in test [6]. The GI50 was 0.0933 µM in test [7], 0.19 µM in test [8], 0.919 µM in test [9] and 0.0786 µM in test [10]. Besides, the TGI is over 100 µM in [1]; 4.04 µM in [2]; 0.104 µM in [3]; over 100 µM in [4]; 0.725 µM in [5]; 5.08 µM in [6]. For the same compound, the TGI in [7] turned out to be 0.559 µM; in [8], 51.9 µM; in test [9] it was 6.81 µM; in test [10], 0.558 µM.

Take `Cc1cc(O)cc2c1[C@]1(C)CCC3C(C)(C)CCC[C@]3(C)[C@H]1C2` (stereo partly specified): the GI50 in test [1] is 20.8 µM; in test [2] it was 19.4 µM; in test [3] it was 18.8 µM; in test [4], 24.7 µM; in [5], 19.2 µM; in test [6], 22 µM. Besides, the GI50 in test [7] was 32.4 µM; in [8], 23.2 µM; in test [9], 18.7 µM; in [10] it was 20.3 µM. The TGI in [1] is 38.9 µM; in test [2] it was 34.3 µM; in test [3], 33.4 µM; in test [4] it was 65.1 µM; in test [5], 33.5 µM; in [6], 38.5 µM. Moreover, the TGI in [7] was over 100 µM; in test [8], 39.4 µM; in [9], 36.4 µM; in test [10] it was 36 µM.

Regarding `N#CC1=C(N)Oc2c(ccc3ccccc23)C1c1ccccc1` (stereo unspecified), the GI50 in test [1] was 0.0226 µM; in test [2], 0.0503 µM; in test [4], 0.0454 µM; in [5], 0.0357 µM; in [6], 0.099 µM; in test [7] it was 0.0295 µM. Besides, the results for the GI50 in test [9] and in test [10] were 7.57 µM and 0.0299 µM, respectively. The TGI was found to be 1.7 µM in test [1]; 13 µM in [2]; 16.8 µM in test [4]; 2.2 µM in [5]; 7.5 µM in test [6]; 0.274 µM in test [7]. Also, the TGI in test [9] was 27 µM; in [10], 11.6 µM.

Turning to `Cc1cc(-c2nc3sccn3c2/C=N/N=C(N)N)c(C)s1`, the GI50 in test [1] was 15.7 µM; in test [2], 15.7 µM; in test [3] it was 13.3 µM; in [4], 13.4 µM; in test [5] it was 13.2 µM; in test [6], 15.3 µM. The results for the GI50 in test [7], in test [9] and in test [10] were 15.6 µM, 17.4 µM and 13.5 µM, respectively. In addition, the TGI came to 32 µM in test [1]; 29.1 µM in [2]; 26.1 µM in [3]; 26.3 µM in test [4]; 26 µM in [5]; 29 µM in [6]. Moreover, the TGI in [7] was over 100 µM; in test [9] it was 31.5 µM; in [10] it was 26.3 µM.

Regarding `NC[C@H]1Nc2ccccc2[C@@H](O)C1O` (stereo partly specified), the TGI in [2], in test [3], in test [4], in test [5], in test [6] and in test [7] was over 100 µM in each case. The TGI in test [8], in test [9] and in test [10] was over 100 µM each time.

On to `COc1ccc(-c2cc(-c3cccn3C)c(C#N)c(=O)[nH]2)cc1OC`, for which the GI50 in test [1], in test [2], in test [3], in test [4], in test [5] and in test [6] was over 100 µM each time. Also, the GI50 in test [8], in [9] and in test [10] was over 100 µM throughout. Besides, the TGI in [1], in [2], in test [3], in test [4], in test [5] and in [6] was over 100 µM in each case. Moreover, the TGI in test [8], in test [9] and in test [10] was over 100 µM in each case.

Regarding `COC(=O)CC[C@]1(C)O[C@H]2[C@H]([C@@H](C)CCCC(C)=O)OC(=O)[C@@H]2C[C@H]1O`, the GI50 in test [1] is over 100 µM; in test [2], over 100 µM; in test [3], 98.3 µM; in [4], over 100 µM; in [5], 31.5 µM; in test [6], over 100 µM. Besides, the GI50 in [7] was over 100 µM; in test [9] it was 68.7 µM; in test [10], over 100 µM. Moreover, the TGI in test [1], in [2], in test [3], in test [4], in test [5] and in [6] was over 100 µM each time. In addition, the TGI in [7], in test [9] and in [10] was over 100 µM throughout.

Consider `COc1cc(-c2ccc(-c3ccc(C(=N)N)nc3)s2)cc(OC)c1OC`, for which the GI50 is 1.8 µM in test [1]; 2.12 µM in [2]; 1.62 µM in test [3]; 3.11 µM in test [4]; 2.6 µM in test [5]; 1.85 µM in test [6]. The results for the GI50 in test [7], in test [8] and in test [9] were 1.87 µM, 1.53 µM and 3.19 µM, respectively. Besides, the total growth inhibition concentration (TGI) in test [1] is 4.14 µM; in [2] it was 3.93 µM; in test [3] it was 3.05 µM; in test [4], 12.7 µM; in test [5] it was 6.35 µM; in [6], 4.2 µM. In addition, the figures for the TGI in test [7], in test [8] and in test [9] were 4.21 µM, 3 µM and 9.35 µM, respectively.

In the case of `C#CC1(OC(C)=O)CCC2C3CC=C4C=C(OC(C)=O)CCC4(C)C3CCC21C` (stereo unspecified), the TGI in [1] was 34.9 µM; in test [2], 85.5 µM; in test [3] it was 45.2 µM; in test [5] it was 41.5 µM; in test [6], 58.3 µM; in test [7] it was over 100 µM. Also, the TGI was 33.9 µM in test [8], 51.6 µM in test [9] and 62 µM in test [10].

For `C=C1C(C2(C)C(OC(C)=O)CC(=O)OC(C)(COC(C)=O)C2CC(=O)OC)C(OC=O)C(OC(=O)C(O)C(C)CC)C2(C)C(c3ccoc3)CC(=O)C12O` (stereo unspecified), the TGI in test [1], in test [2], in test [3], in test [4], in test [5] and in test [6] was over 100 µM in each case. Besides, the TGI is 0.414 µM in test [7], over 100 µM in [9] and over 100 µM in [10].

Consider `CC1=C(C(=O)Nc2ccc(Cl)c(Cl)c2)C(c2cccc(Cl)c2)NC(=O)N1` (stereo unspecified), for which the GI50 was 9.53 µM in test [1]; 10.2 µM in test [2]; 0.464 µM in test [3]; over 50 µM in [4]; 0.838 µM in test [5]; 4.44 µM in [6]. For the same compound, the GI50 was 10.6 µM in test [7], 0.22 µM in test [9] and 1.04 µM in test [10]. Also, the TGI in test [1] was 18.5 µM; in test [2] it was 28.3 µM; in test [3], 1.92 µM; in [4] it was over 50 µM; in [5], 9.13 µM; in [6] it was 11.7 µM. The results for the TGI in test [7], in [9] and in test [10] were over 35.7 µM, 0.346 µM and 5.12 µM, respectively.

Regarding `c1cc(N2CCCN(c3ccc(C4=NCCCN4)cc3)CC2)ccc1C1=NCCCN1`, the GI50 in [1] was over 100 µM; in [2] it was over 100 µM; in [3], over 100 µM; in test [4], 91.9 µM; in test [5], over 100 µM; in test [7], over 100 µM. The GI50 in test [8] was over 100 µM; in test [9], 52.5 µM; in test [10], 51.1 µM. Also, the TGI in [1], in test [2], in test [3], in test [4], in test [5] and in [7] was over 100 µM each time. Besides, the TGI in test [8], in test [9] and in test [10] was over 100 µM throughout.

For the compound `NC1CCC(Nc2nc(NCc3ccc(-c4ccccc4O)nc3)c3ncn(C4CCCC4)c3n2)CC1` (stereo unspecified), the GI50 was under 0.01 µM in test [1]; 0.0293 µM in test [2]; 0.0119 µM in test [3]; 0.0275 µM in [4]; 0.0288 µM in test [5]; under 0.0105 µM in test [6]. In addition, the GI50 was under 0.01 µM in [7], 0.0306 µM in test [9] and 0.0295 µM in test [10]. Moreover, the TGI in [1] amounted to 0.01 µM; in [2], 1.06 µM; in [3], 1.17 µM; in test [4], 1.02 µM; in test [5] it was 0.0899 µM; in [6], 0.895 µM. Further, the TGI amounted to 1.33 µM in test [9] and 0.219 µM in [10].

`O=C1c2ccccc2-c2oc(=O)c3ccccc3c21`: the TGI in test [1], in [2], in test [3], in test [4], in test [5] and in test [6] was over 100 µM throughout. For the same compound, the TGI in [7], in test [9] and in [10] was over 100 µM in each case.

With `COc1cc(Nc2nc3ccccc3nc2NS(=O)(=O)c2ccc(NC(=O)c3ccc(C)c(OC)c3)cc2)cc(OC)c1`, the total growth inhibition concentration (TGI) in test [2] is 74.1 µM and > 7.32 µM; in [3], > 100 µM and 86.2 µM and > 5.19 µM; in [4] it was > 100 µM and 74.9 µM and > 6.71 µM; in test [6] it was 46.2 µM and > 100 µM and > 7 µM; in [7] it was 38 µM and 52.9 µM and > 8.02 µM; in test [9], 37.6 µM and 54.1 µM and > 6.03 µM. Further, the TGI in [10] was 9.85 µM and 33.6 µM and > 5.22 µM. Moreover, the GI50 in [10] was 2.03 µM and 8.73 µM and 1.08 µM.

Source of the values: PubChem BioAssay (NCI).
